This note sets out measurements from patent publication US20250282749A1 (Tango Therapeutics, Inc., priority 2022, published 2025).

Holding throughout (format): cell-based
Assay [1] deals with PRMT5 (SDMA) in HAP1 MTAP-deleted cell line. The experiment in a line: SDMA in-cell western assay, HAP1 MTAP-deleted cell line. The settings on record: for IC50 / IC90: Homo sapiens, SDMA in-cell western, HAP1 MTAP-deleted (MTAP-null) cell line; for Hap1 MTAP intact/deleted ratio: ratio of SDMA in-cell western IC50 in HAP1 MTAP-intact to IC50 in HAP1 MTAP-deleted cell line. An excerpt:
(§1) HAP1 MTAP-intact is a cell line in which endogenous levels of MTAP are expressed, and HAP1 MTAP-deleted is an MTAP-null cell line.

Assay [2] has as its system PRMT5 (SDMA) in HAP1 MTAP-intact cell line. The experiment in a line: SDMA in-cell western assay, HAP1 MTAP-intact cell line. The settings on record: Homo sapiens, HAP1 MTAP-intact cell line (endogenous MTAP), read-out: Hap 1 MTAP intact IC50.
Description: as §1

In assay [3] the test system is HAP1 MTAP-deleted cell line. The experiment in a line: viability assay for the MTAP-deleted cell line. The settings on record: Homo sapiens.

By IC50 is commonly meant the concentration at which inhibition is half-maximal. Broadly, the IC90 is the concentration at which the effect reaches the 90% level. Low readings indicate greater potency, high ones weaker potency. For the compound `CC(C)CN1C[C@H](c2ccccc2)N(C(=O)C(=O)Nc2cnc(N)c3cn[nH]c23)C[C@H]1C` [Compound 16], in assay [1], the 50% inhibitory concentration (IC50) was less than 5 nM, the concentration for an effect of 90% (IC90) was less than 75 nM and the “Hap1 MTAP intact/deleted ratio” value is “A (an IC50 ratio greater than or equal to 30 fold)”. For the same compound, the IC50 in assay [2] fell in the range of 5 to 50 nM. The same compound came in with an IC50 in assay [3] of less than 100 nM.
For the compound `C[C@@H]1CN(C(=O)C(=O)Nc2cnc(N)c(C3CC3)c2)[C@@H](c2ccccc2)CN1C(=O)C1(C)CC1` [Compound 94, N-(6-amino-5-cyclopropylpyridin-3-yl)-2-((2S,5R)-5-methyl-4-(1-methylcyclopropanecarbonyl)-2-phenylpiperazin-1-yl)-2-oxoacetamide], the IC50 in assay [1] is less than 5 nM; in assay [2], more than 50 nM; in assay [3], less than 100 nM. The IC90 in assay [1] lay in the range of 75 to 125 nM. Also, in assay [1], the “Hap1 MTAP intact/deleted ratio” value is “B (an IC50 ratio greater than or equal to 15 fold but lower than 30 fold)”.
For `Cc1cc(NC(=O)C(=O)N2C[C@@H](C)N(C(=O)C3(C(F)(F)F)CC3)C[C@@H]2c2ccccc2)cnc1N` [Compound 78, N-(6-amino-5-methylpyridin-3-yl)-2-((2S,5R)-5-methyl-2-phenyl-4-(1-(trifluoromethyl)cyclopropanecarbonyl)piperazin-1-yl)-2-oxoacetamide] the same measures were 5 to 50 nM, more than 50 nM, less than 100 nM, more than 125 nM and “B (an IC50 ratio greater than or equal to 15 fold but lower than 30 fold)”.
For `Cc1cc(NC(=O)C(=O)N2C[C@@H](C)N(C(=O)C3(C)CCN(C)C3)C[C@@H]2c2ccccc2)cnc1N` (stereo partly drawn) [Compound 34] the same measures were 5 to 50 nM, more than 50 nM, 100 to 1000 nM, more than 125 nM and “B (an IC50 ratio greater than or equal to 15 fold but lower than 30 fold)”.
In the case of `Cc1cc(NC(=O)C(=O)N2CCN(C(=O)C3(C(F)(F)F)CC3)[C@H](C)[C@H]2c2ccc(F)cc2)cnc1N` (stereo in doubt) [Compound 118, N-(6-amino-5-methyl-3-pyridyl)-2-[2-(4-fluorophenyl)-3-methyl-4-[1-(trifluoromethyl)cyclopropanecarbonyl]piperazin-1-yl]-2-oxo-acetamide], the IC50 in assay [1] is 5 to 50 nM; in assay [2] it was more than 50 nM; in assay [3], 100 to 1000 nM. Moreover, the IC90 in assay [1] was more than 125 nM. Further, the “Hap1 MTAP intact/deleted ratio” value in assay [1] is on record as “B (an IC50 ratio greater than or equal to 15 fold but lower than 30 fold)”.
For `CCc1cc(NC(=O)C(=O)N2C[C@@H](C)N(C(=O)C3(C(F)(F)F)CC3)C[C@@H]2c2ccc(N3CCN(C)CC3)cc2)cnc1N` [Compound 132, N-(6-amino-5-ethylpyridin-3-yl)-2-((2S,5R)-5-methyl-2-(4-(4-methylpiperazin-1-yl)phenyl)-4-(1-(trifluoromethyl)cyclopropanecarbonyl)piperazin-1-yl)-2-oxoacetamide] the same measures were less than 5 nM, 5 to 50 nM, less than 100 nM, less than 75 nM and “C (an IC50 ratio of less than 15 fold)”.
For `Cc1cc(NC(=O)C(=O)N2C[C@@H](C)N(C(=O)OC(C)(C)C)C[C@@H]2c2ccc(F)cc2)cnc1N` [Compound 101] the same measures were less than 5 nM, more than 50 nM, less than 100 nM, less than 75 nM and “B (an IC50 ratio greater than or equal to 15 fold but lower than 30 fold)”.
For `CCc1cc(NC(=O)C(=O)N2C[C@@H](C)OC[C@@H]2c2ccc3sc(C4CCN(C)CC4)nc3c2)cnc1N` [Compound 96] the same measures were 5 to 50 nM, more than 50 nM, less than 100 nM, 75 to 125 nM and “B (an IC50 ratio greater than or equal to 15 fold but lower than 30 fold)”.
Take `CCc1cc(NC(=O)C(=O)N2C[C@@H](C)N(C(=O)C3(C(F)(F)F)CC3)C[C@@H]2c2ccccc2)cnc1N` [Compound 81, N-(6-amino-5-ethylpyridin-3-yl)-2-((2S,5R)-5-methyl-2-phenyl-4-(1-(trifluoromethyl)cyclopropanecarbonyl)piperazin-1-yl)-2-oxoacetamide]: the IC50 in assay [1] was 5 to 50 nM; in assay [2], more than 50 nM; in assay [3], less than 100 nM. This compound gave an IC90 in assay [1] of 75 to 125 nM. Moreover, in assay [1], the “Hap1 MTAP intact/deleted ratio” value is “B (an IC50 ratio greater than or equal to 15 fold but lower than 30 fold)”.
For `C[C@@H]1CN(C(=O)C(=O)Nc2cnc(N)c(C3CC3)c2)[C@@H](c2ccc(F)cc2)CN1C(=O)C1(C(F)(F)F)CC1` [Compound 112, N-(6-amino-5-cyclopropylpyridin-3-yl)-2-((2S,5R)-2-(4-fluorophenyl)-5-methyl-4-(1-(trifluoromethyl)cyclopropanecarbonyl)piperazin-1-yl)-2-oxoacetamide] the same measures were 5 to 50 nM, more than 50 nM, less than 100 nM, 75 to 125 nM and “C (an IC50 ratio of less than 15 fold)”.
For `C[C@@H]1CN(C(=O)C(=O)Nc2cnc(N)c3cn[nH]c23)[C@@H](c2ccc(F)cc2)CN1C(=O)C1(C(F)(F)F)CC1` [Compound 79] the same measures were less than 5 nM, 5 to 50 nM, less than 100 nM, less than 75 nM and “C (an IC50 ratio of less than 15 fold)”.
For `Cc1cc(NC(=O)C(=O)N2C[C@@H](C)N(C(=O)C(C)C)C[C@@H]2c2ccc(N3CCN(C)CC3)cc2)cnc1N` [Compound 11, N-(6-amino-5-methylpyridin-3-yl)-2-((2S,5R)-4-isobutyryl-5-methyl-2-(4-(4-methylpiperazin-1-yl)phenyl)piperazin-1-yl)-2-oxoacetamide] the same measures were less than 5 nM, 5 to 50 nM, less than 100 nM, less than 75 nM and “C (an IC50 ratio of less than 15 fold)”.
As to `C[C@@H]1CN(C(=O)C(=O)Nc2cncc3cn[nH]c23)[C@@H](c2ccc3scnc3c2)CN1C(=O)C1(C)CC1` (racemic) [Compound 61, 2-oxo-N-(1H-pyrazolo[4,3-c]pyridin-7-yl)-2-[rac-(2S,5R)-2-(1,3-benzothiazol-5-yl)-5-methyl-4-(1-methylcyclopropanecarbonyl)piperazin-1-yl]acetamide], in assay [1], the IC50 was 5 to 50 nM, the IC90 is 75 to 125 nM and the “Hap1 MTAP intact/deleted ratio” value is reported as “C (an IC50 ratio of less than 15 fold)”. The IC50 in assay [2] was more than 50 nM. In assay [3], this compound had an IC50 of 100 to 1000 nM.
Consider `CCC(=O)N1C[C@H](c2ccc(F)cc2)N(C(=O)C(=O)Nc2cnc(N)c(C3CC3)c2)C[C@H]1C` [Compound 153], for which, in assay [1], the IC50 lay within 5 to 50 nM, the IC90 was more than 125 nM and the “Hap1 MTAP intact/deleted ratio” value is on record as “B (an IC50 ratio greater than or equal to 15 fold but lower than 30 fold)”. In assay [2], the IC50 was more than 50 nM. The same compound registered a 50% inhibitory concentration (IC50) in assay [3] of 100 to 1000 nM.
The corresponding values for `C[C@@H]1CN(C(=O)C(=O)Nc2cnc(N)c(C3COC3)c2)[C@@H](c2ccccc2)CN1C(=O)C(C)(C)C` [Compound 127, N-(6-amino-5-(oxetan-3-yl)pyridin-3-yl)-2-((2S,5R)-5-methyl-2-phenyl-4-pivaloylpiperazin-1-yl)-2-oxoacetamide] are 5 to 50 nM, less than 75 nM, “C (an IC50 ratio of less than 15 fold)”, 5 to 50 nM and less than 100 nM.
For `Cc1cc(NC(=O)C(=O)N2C[C@@H](C)N(C(=O)C3(C(F)(F)F)CC3)C[C@@H]2c2ccc(F)c(F)c2)cnc1N` [Compound 38, N-(6-amino-5-methylpyridin-3-yl)-2-((2S,5R)-2-(3,4-difluorophenyl)-5-methyl-4-(1-(trifluoromethyl)cyclopropanecarbonyl)piperazin-1-yl)-2-oxoacetamide] the same measures were 5 to 50 nM, 75 to 125 nM, “C (an IC50 ratio of less than 15 fold)”, more than 50 nM and less than 100 nM.
The corresponding values for `CCc1cc(NC(=O)C(=O)N2CCN(C(=O)C3(C(F)(F)F)CC3)C[C@@H]2c2ccc(F)c(Cl)c2)cnc1N` [Compound 47, N-(6-amino-5-ethyl-3-pyridyl)-2-[(2S)-2-(3-chloro-4-fluoro-phenyl)-4-[1-(trifluoromethyl)cyclopropanecarbonyl]piperazin-1-yl]-2-oxo-acetamide] are more than 50 nM, more than 125 nM, “C (an IC50 ratio of less than 15 fold)”, more than 50 nM and more than 1000 nM.
As to `CC(C)C(=O)N1C[C@H](c2ccc3scnc3c2)N(C(=O)C(=O)Nc2cnc(N)c(C3CC3)c2)C[C@H]1C` [Compound 93, N-(6-amino-5-cyclopropyl-3-pyridyl)-2-[(2S,5R)-2-(1,3-benzothiazol-5-yl)-5-methyl-4-(2-methylpropanoyl)piperazin-1-yl]-2-oxo-acetamide], in assay [1], the IC50 was 5 to 50 nM, the 90% effect concentration (IC90) is less than 75 nM and the “Hap1 MTAP intact/deleted ratio” value is given as “C (an IC50 ratio of less than 15 fold)”. Also, the IC50 in assay [2] lay in the range of 5 to 50 nM. Besides, in assay [3], the IC50 was less than 100 nM.
